Measurements: patent US20250213555A1, “SUBSTITUTED TETRAHYDROFURAN ANALOGS AS MODULATORS OF SODIUM CHANNELS” (VERTEX PHARMACEUTICALS INCORPORATED, priority 2021, published 2025)

Molecular target: human Nav 1.8 (Homo sapiens, UniProt Q9Y5Y9)
Test: E-VIPR assay detecting and measuring Nav inhibition properties
Assay type: cell-based
Details: HEK cells expressing a truncated form of human Nav 1.8; compound numbers without "*" (not marked as run in the presence of human serum); read-out: measured IC50 value in the E-VIPR Assay
Excerpt: E-VIPR Assay Detecting and Measuring Nav Inhibition Properties
Sodium ion channels are voltage-dependent proteins that can be activated by inducing membrane voltage changes by applying electric fields. The electrical stimulation instrument and methods of use, referred to as E-VIPR, are described in International Publication No. WO 2002/008748 A3 and C.-J. Huang et al. Characterization of voltage-gated sodium channel blockers by electrical stimulation and fluorescence detection of membrane potential, 24 Nature Biotech. 439-46 (2006), both of which are incorporated by reference in their entirety. The instrument comprises a microtiter plate handler, an optical system for exciting the coumarin dye while simultaneously recording the coumarin and oxonol emissions, a waveform generator, a current- or voltage-controlled amplifier, and parallel electrode pairs that are inserted into assay plate wells. Under integrated computer control, this instrument passes user-programmed electrical stimulus protocols to cells within the wells of the microtiter plate.
16-20 hours prior to running the assay on E-VIPR, HEK cells expressing a truncated form of human Nav 1.8 with full channel activity were seeded into microtiter 384-well plates, pre-coated with matrigel, at a density of 25,000 cells per well. 2.5-5% KIR2.1 Bacmam virus was added to the final cell suspension before seeding into cell plates. HEK cells were grown in Dulbecco's Modified Eagle's Medium (DMEM) supplemented with 10% FBS (Fetal Bovine Serum, qualified; Sigma #F4135), 1% NEAA (Non-Essential Amino Acids, Gibco #11140), 1% HEPES (Gibco #15630), 1% Pen-Strep (Penicillin-Streptomycin; Gibco #15140) and 5 μg/ml Blasticidin (Gibco #R^210-01). Cells were expanded in vented cap cell culture flasks, with 90-95% humidity and 5% CO2.
100 mg/mL Pluronic F-127 (Sigma #P2443), in dry DMSO
Compound Plates: Corning 384-well Polypropylene Round Bottom #3656
Cell Plates: 384-well tissue culture treated plates (Greiner #781091-2B)
2.5-5% KIR 2.1 Bacmam virus (produced in-house), prepared as described in Section 3.3 of J. A. Fornwald et al., Gene Expression in Mammalian Cells Using BacMam, a Modified Baculovirus System, 1350 Methods in Molecular Biology 95-116 (2016), the entire contents of which are incorporated by reference. The concentration used can be dependent on viral titer of each batch.
5 mM DiSBAC6(3), a voltage sensitive oxonol acceptor (CAS number 169211-44-3; 5-[3-(1,3-dihexylhexahydro-4,6-dioxo-2-thioxo-5-pyrimidinyl)-2-propen-1-ylidene]-1,3-dihexyldihydro-2-thioxo-4,6 (1H,5H)-pyrimidinedione), in dry DMSO. The preparation of DiSBAC6(3) is analogous to that of DiSBAC4(3) as described in Voltage Sensing by Fluorescence Resonance Energy Transfer in Single Cells, Gonzalez, J. E. and Tsien, R. Y. (1995) Biophys. J. 69, 1272-1280.
5 mM CC2-DMPE, a commercially available membrane-bound coumarin phospholipid FRET donor (ThermoFisher Scientific catalog number K1017, CAS number 393782-57-5; tetradecanoic acid, 1,1′-[(1R)-1-[8-(6-chloro-7-hydroxy-2-oxo-2H-1-benzopyran-3-yl)-3-hydroxy-3-oxido-8-oxo-2,4-dioxa-7-aza-3-phosphaoct-1-yl]-1,2-ethanediyl] ester) was prepared in dry DMSO. See also, Improved indicators of cell membrane potential that use fluorescence resonance energy transfer, Gonzalez, J. E. and Tsien, R. Y. (1997) Chem. Biol. 4, 269-277.
Voltage Assay Background Suppression Compound (VABSC-1) is prepared in H2O (89-363 mM, range used to maintain solubility)
Human Serum (HS, Millipore #S1P1-01KL, or Sigma SLBR5469V and SLBR5470V as a 50%/50% mixture, for 25% assay final concentration)
• Sodium Chloride 160 mM (9.35 g/L), Potassium Chloride, 4.5 mM (0.335 g/L), Glucose 10 mM (1.8 g/L), Magnesium Chloride (Anhydrous) 1 mM (0.095 g/L), Calcium Chloride 2 mM (0.222 g/L), HEPES 10 mM (2.38 g/L) in water. […]

Chain of human Nav 1.8 (Q9Y5Y9 126-399 limits assumed): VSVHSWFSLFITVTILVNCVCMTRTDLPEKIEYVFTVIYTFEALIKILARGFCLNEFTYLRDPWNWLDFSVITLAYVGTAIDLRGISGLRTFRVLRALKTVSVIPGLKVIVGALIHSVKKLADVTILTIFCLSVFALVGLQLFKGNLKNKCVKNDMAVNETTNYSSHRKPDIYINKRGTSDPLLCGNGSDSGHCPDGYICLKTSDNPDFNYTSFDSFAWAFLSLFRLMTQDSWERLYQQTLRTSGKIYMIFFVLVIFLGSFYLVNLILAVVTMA
Chain of human Nav 1.8 (Q9Y5Y9 660-890 limits assumed): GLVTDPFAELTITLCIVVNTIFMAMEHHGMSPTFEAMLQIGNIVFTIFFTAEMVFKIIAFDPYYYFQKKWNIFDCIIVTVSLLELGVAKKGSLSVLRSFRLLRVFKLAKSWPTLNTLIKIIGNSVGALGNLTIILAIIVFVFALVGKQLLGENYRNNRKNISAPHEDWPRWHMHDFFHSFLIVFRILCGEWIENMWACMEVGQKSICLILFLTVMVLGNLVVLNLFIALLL
Chain of human Nav 1.8 (Q9Y5Y9 1148-1722 limits assumed): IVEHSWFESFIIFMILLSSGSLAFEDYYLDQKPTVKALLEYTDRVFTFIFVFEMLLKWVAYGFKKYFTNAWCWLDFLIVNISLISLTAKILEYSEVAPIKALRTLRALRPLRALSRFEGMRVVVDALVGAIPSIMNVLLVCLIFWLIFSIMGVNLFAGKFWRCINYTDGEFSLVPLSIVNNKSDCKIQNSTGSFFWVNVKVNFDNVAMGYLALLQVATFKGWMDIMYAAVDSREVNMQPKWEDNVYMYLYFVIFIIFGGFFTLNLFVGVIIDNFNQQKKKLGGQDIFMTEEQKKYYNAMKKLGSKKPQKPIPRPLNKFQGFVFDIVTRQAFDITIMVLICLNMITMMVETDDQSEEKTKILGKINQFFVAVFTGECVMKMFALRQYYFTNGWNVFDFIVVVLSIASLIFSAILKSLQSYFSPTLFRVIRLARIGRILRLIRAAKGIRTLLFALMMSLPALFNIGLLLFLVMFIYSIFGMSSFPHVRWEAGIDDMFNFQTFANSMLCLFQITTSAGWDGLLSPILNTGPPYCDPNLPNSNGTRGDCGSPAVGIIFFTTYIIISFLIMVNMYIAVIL

Row | IC50 [nM] | SMILES
1 | 10 to 100 | C[C@H]1[C@@H](c2ccc(F)c(F)c2O[C@@H]2CCN(C)C2)[C@H](C(=O)Nc2ccnc(C(N)=O)c2)O[C@@]1(C)C(F)(F)F (single isomer, unassigned) [Compound 102, rel-4-((2R*,3S*,4S*,5R*)-3-(3,4-difluoro-2-((-1-methylpyrrolidin-3-yl)oxy)phenyl)-4,5-dimethyl-5-(trifluoromethyl)tetrahydrofuran-2-carboxamido)picolinamide]
2 | ≥ 1000 | COc1c([C@@H]2[C@@H](C(=O)Nc3ccnc(C(N)=O)c3)O[C@](C)(C(F)(F)F)[C@@H]2C)ccc(F)c1CO (single isomer, unassigned) [Compound 137]
3 | ≥ 1000 | COCc1c(F)ccc([C@@H]2[C@@H](C(=O)Nc3ccnc(C(N)=O)c3)O[C@](C)(C(F)(F)F)[C@@H]2C)c1OC (single isomer, unassigned) [Compound 139]
4 | 100 to 1000 | COc1c([C@@H]2[C@@H](C(=O)Nc3ccnc(C(N)=O)c3)O[C@](C)(C(F)(F)F)[C@@H]2C)ccc(OCC2CC2)c1F (single isomer, unassigned) [Compound 141]
5 | ≥ 1000 | COc1c([C@@H]2[C@@H](C)[C@@](C)(C(F)(F)F)O[C@H]2C(=O)Nc2ccnc(C(N)=O)c2)ccc(OCC2CC2)c1F (single isomer, unassigned) [Compound 142]
6 | 100 to 1000 | COc1c([C@@H]2[C@@H](C(=O)Nc3ccnc(C(N)=O)c3)O[C@@](C)(C(F)(F)F)[C@H]2C)ccc(OCC2CC2)c1F (single isomer, unassigned) [Compound 143]
7 | < 10 | C[C@H]1[C@@H](c2ccc(F)c3c2CCC3(F)F)[C@H](C(=O)Nc2ccnc(C(N)=O)c2)O[C@@]1(C)C(F)(F)F (single isomer, unassigned) [Compound 149]
8 | < 10 | CO[C@H](CO)COc1c([C@H]2[C@H](C(=O)Nc3ccnc(C(N)=O)c3)O[C@@](C)(C(F)(F)F)[C@H]2C)ccc(F)c1F (single isomer, unassigned) [Compound 160, rel-4-((2R*,3S*,4S*,5R*)-3-(3,4-difluoro-2-(3-hydroxy-2-methoxypropoxy)phenyl)-4,5-dimethyl-5-(trifluoromethyl)tetrahydrofuran-2-carboxamido)picolinamide]
9 | 10 to 100 | CO[C@H](CO)COc1c([C@H]2[C@H](C(=O)Nc3ccnc(C(N)=O)c3)O[C@@](C)(C(F)(F)F)[C@H]2C)ccc(F)c1F (single isomer, unassigned) [Compound 161, rel-4-((2R*,3S*,4S*,5R*)-3-(3,4-difluoro-2-(3-hydroxy-2-methoxypropoxy)phenyl)-4,5-dimethyl-5-(trifluoromethyl)tetrahydrofuran-2-carboxamido)picolinamide]
10 | < 10 | CON=C(C)COc1c([C@H]2[C@H](C(=O)Nc3ccnc(C(N)=O)c3)O[C@@](C)(C(F)(F)F)[C@H]2C)ccc(F)c1F (single isomer, unassigned) [Compound 194, rel-4-((2R*,3S*,4S*,5R*)-3-(3,4-difluoro-2-(2-(methoxyimino)propoxy)phenyl)-4,5-dimethyl-5-(trifluoromethyl)tetrahydrofuran-2-carboxamido)picolinamide]
11 | < 10 | CC1C(c2ccc(F)c(F)c2OCC2CC(O)C2)C(C(=O)Nc2cccc(C(N)=O)c2)OC1(C)C(F)(F)F (single isomer, unassigned) [Compound 197, rel-(2R*,3S*,4S*,5R*)-N-(3-carbamoylphenyl)-3-(3,4-difluoro-2-(((1r,3S)-3-hydroxycyclobutyl)methoxy)phenyl)-4,5-dimethyl-5-(trifluoromethyl)tetrahydrofuran-2-carboxamide]
12 | < 10 | CNC1CCN(C(=O)c2cc(NC(=O)[C@@H]3O[C@@](C)(C(F)(F)F)[C@@H](C)[C@H]3c3ccc(F)c(F)c3OC)ccn2)C1 (single isomer, unassigned) [Compound 222, rel-(2R*,3S*,4S*,5R*)-3-(3,4-difluoro-2-methoxyphenyl)-4,5-dimethyl-N-(2-(3-(methylamino)pyrrolidine-1-carbonyl)pyridin-4-yl)-5-(trifluoromethyl)tetrahydrofuran-2-carboxamide]

Second part, the compound before the results:

Row | SMILES | IC50 [nM]
13 | COCc1c(F)ccc([C@H]2[C@H](C(=O)Nc3ccnc(C(N)=O)c3)O[C@@](C)(C(F)(F)F)[C@H]2C)c1OC (single isomer, unassigned) [Compound 140] | < 10
14 | COc1c([C@H]2[C@H](C(=O)Nc3ccnc(C(N)=O)c3)O[C@@](C)(C(F)(F)F)[C@H]2C)ccc(OCC2CC2)c1F (single isomer, unassigned) [Compound 144] | < 10
15 | COCc1c([C@@H]2[C@@H](C(=O)Nc3ccnc(C(N)=O)c3)O[C@](C)(C(F)(F)F)[C@@H]2C)ccc(F)c1F (single isomer, unassigned) [Compound 146] | ≥ 1000
16 | COCc1c([C@H]2[C@H](C(=O)Nc3ccnc(C(N)=O)c3)O[C@@](C)(C(F)(F)F)[C@H]2C)ccc(F)c1F (single isomer, unassigned) [Compound 147] | < 10
17 | C[C@@H]1[C@H](c2ccc(F)c3c2CCC3(F)F)[C@@H](C(=O)Nc2ccnc(C(N)=O)c2)O[C@]1(C)C(F)(F)F (single isomer, unassigned) [Compound 148] | ≥ 1000
18 | CC=C(CO)COc1c([C@H]2[C@H](C(=O)Nc3ccnc(C(N)=O)c3)O[C@@](C)(C(F)(F)F)[C@H]2C)ccc(F)c1F (single isomer, unassigned) [Compound 164, rel-4-((2R*,3S*,4S*,5R*)-3-(3,4-difluoro-2-((2-(hydroxymethyl)but-2-en-1-yl)oxy)phenyl)-4,5-dimethyl-5-(trifluoromethyl)tetrahydrofuran-2-carboxamido)picolinamide] | < 10
19 | C[C@H]1[C@@H](c2ccc(F)c(F)c2OCC(=NO)C2CC2)[C@H](C(=O)Nc2ccnc(C(N)=O)c2)O[C@@]1(C)C(F)(F)F (single isomer, unassigned) [Compound 183, rel-4-((2R*,3S*,4S*,5R*)-3-(2-(2-cyclopropyl-2-(hydroxyimino)ethoxy)-3,4-difluorophenyl)-4,5-dimethyl-5-(trifluoromethyl)tetrahydrofuran-2-carboxamido) picolinamide] | < 10
20 | CC(C)C(COc1c([C@H]2[C@H](C(=O)Nc3ccnc(C(N)=O)c3)O[C@@](C)(C(F)(F)F)[C@H]2C)ccc(F)c1F)=NO (single isomer, unassigned) [Compound 187, rel-4-((2R*,3S*,4S*,5R*)-3-(3,4-difluoro-2-(2-(hydroxyimino)-3-methylbutoxy)phenyl)-4,5-dimethyl-5-(trifluoromethyl)tetrahydrofuran-2-carboxamido)picolinamide] | < 10
21 | CC1C(c2ccc(F)c(F)c2OCC2CC(C)(O)C2)C(C(=O)Nc2ccnc(C(N)=O)c2)OC1(C)C(F)(F)F (single isomer, unassigned) [Compound 200, rel-4-((2R*,3S*,4S*,5R*)-3-(3,4-difluoro-2-(((1s,3R)-3-hydroxy-3-methylcyclobutyl)methoxy)phenyl)-4,5-dimethyl-5-(trifluoromethyl)tetrahydrofuran-2-carboxamido)picolinamide] | 10 to 100
22 | CCOc1ccc([C@@H]2[C@@H](C(=O)Nc3ccnc(C(N)=O)c3)O[C@](C)(C(F)(F)F)[C@@H]2C)c2c1OC(F)(F)O2 (single isomer, unassigned) [Compound 209] | ≥ 1000
